Source: patent US11452309B2, “Formula of preparations for oral and/or enteral feeding of children” (priority 2017, dated 2022)
Values after ≈ are worked out from the molar mass of the structure shown. Structures can show the parent of a compound that is named as a salt. Where two headings read alike, the source gives them in different places.

What was measured:
[1] = cited from earlier work
[2] = Solubility of kynurenic acid and its sodium salt; type: physicochemical; conditions: water, converted from 100 mM, read-out: solubility in water, corresponding value

Row | Structure (SMILES) | solubility in 1.0 M NaOH ([1]; alkaline conditions, 1.0 M NaOH) [mg/mL] | solubility in water [1] [mg/mL] | solubility [2] [mg/mL] | solubility in water ([1]; sodium salt) [mM]
1 | O=C(O)c1cc(=O)c2ccccc2[nH]1 [kynurenic acid] | 50 (≈ 264 mM) | 0.95 | – | –
2 | O=C(O)c1cc(=O)c2ccccc2[nH]1 [sodium salt] | – | – | 21 | 100
